In publication PMC6176321, “Efficient Synthesis of Glutamate Peptide-Estradiol Conjugate for Imaging Estrogen Receptor-Positive Diseases” (BioMed Research International, 2018):
Ends that are not written are not given here.

Key:
[1] = system: MCF7 (ER+) breast cancer cells; test: In vitro cellular uptake assay (sensitivity); type: cell-based; conditions: 50,000 cells/well, 4 uCi/80uL/well, 4ug/well, average of three measurements
Protocol: (§1) In vitro cellular uptake studies of ^68Ga-GAP-EDL in breast tumor cells were performed. Breast cancer cell lines with high (MCF7; ER+) and low (SK-BR-3; ER-) estrogen receptor densities were used to determine the sensitivity and specificity for the cellular uptake assay. Briefly, for sensitivity assay, breast tumor cells (50,000 cells/well, 12 wells) were added with ^68GaCl3, ^68Ga-GAP, and ^68Ga-GAP-EDL (4 uCi/80uL/well, 4ug/well). The cells were incubated for 0.5-2 hrs. […] After incubation, the supernatant was collected. The cells were washed twice with ice cold PBS (1 ml) and trypsin EDTA (0.1 ml). After 2 min, the cells were collected. The wells were washed twice with cold PBS (0.5ml). The total volume of cell supernatant and the total volume containing cells were transferred to test tube to count the activity separately. Each piece of data represents an average of three measurements. Percentage of uptake (%)=cell activity/(cell supernatant+ cell activity)∗100% was calculated.

[2] = system: SK-BR-3 (ER-) breast cancer cells; test: In vitro cellular uptake assay (sensitivity); type: cell-based; conditions: 50,000 cells/well, 4 uCi/80uL/well, 4ug/well, average of three measurements
Protocol: as §1

[3] = Micro-PET/CT imaging, tumor-to-muscle count density ratio; set-up: species or system mice; conditions: mouse, in vivo, 0.14 mg per 100uCi (0.2 mL) per mouse, 0.14mg per 100μCi, iv, n=2 per compound
Protocol: For PET imaging studies, athymic nude mice (n=2 per compound) inoculated with MCF-7 cells (s.c. 10^6 cells/mouse) at the left hind legs. When tumor reached 0.7cm, the tumor-bearing mice were anesthetized with 2% isoflurane on prone position. ^68Ga chloride (5mCi) was obtained by eluting a ^68Ge/^68Ga generator (20mCi size from Eckert Ziegler, Germany) with HCL (0.1N, 1.5 mL). Labeling GAP (1 mg) and GAP-EDL (1mg) was achieved by dissolving both compounds in sodium acetate (0.4 mL, 0.1N, pH 5.4), followed by adding ^68Ga chloride (1mCi, 0.3mL). Both compounds were sat at 37°C for 20 min. For animal imaging studies, the concentrations were diluted to 1.5mL/mg by adding saline (0.9%). Each mouse was administered with ^68Ga-GAP and ^68Ga-GAP-EDL (0.14mg per 100μCi, 0.2 mL, iv). ^68Ga-GAP and ^68Ga-GAP-EDL imaging studies were performed with a Siemens Inveon micro-PET/CT scanner (Siemens Medical Systems, Hoffman Estates, IL). Three serial 30-minute trans-axial PET images were obtained. All corrections for attenuation, scatter, and dead time were applied to generate quantifiable images. Regions of interests were then drawn on the tumor tissue and muscle regions and time activity curves were generated, the counts per pixel were used to determine tumor tissue-to-muscle tissue count density ratios.

Molecule | Percentage of uptake ([1]; MCF-7, 30min incubation) [%] | Percentage of uptake ([1]; MCF-7, 1h incubation) [%] | Percentage of uptake ([1]; MCF-7, 2h incubation) [%] | Percentage of uptake ([2]; SK-BR-3, 30min incubation) [%] | Percentage of uptake ([2]; SK-BR-3, 1h incubation) [%] | Percentage of uptake ([2]; SK-BR-3, 2h incubation) [%] | tissue to tissue ratio at 0.5 h ([3]; 30 min) | tissue to tissue ratio at 1 h ([3]; 60 min) | tissue to tissue ratio at 1.5 h ([3]; 90 min)
[Cl][68Ga]([Cl])[Cl] [^68GaCl3] | 1.35±0.35 | 1.79±0.28 | 1.63±0.33 | 1.74±0.21 | 1.80±0.20 | 2.21±0.11 |  |  | 
EEEEEE [^68Ga-GAP, metal not drawn] | 2.20±0.73 | 3.20±1.17 | 2.43±0.71 | 1.84±0.27 | 3.11±1.29 | 2.45±0.21 | 1.1 ± 0.02 | 1.2 ± 0.01 | 1.2 ± 0.02
